Active and inactive are the calls of the source. No cut-off for these calls is given here.
Legend:
[1] = target: T1, Protein deacetylase HDAC6 (Homo sapiens) (UniProt Q9UBN7); test: Inhibition of full length recombinant human HDAC6 at 10 uM using Fluor-de-Lys deacetylase as substrate preincubated for 15 mins followed by substrate addition and measured after 60 mins by spectrofluorimetric method relative to control
T1 sequence (whole entry): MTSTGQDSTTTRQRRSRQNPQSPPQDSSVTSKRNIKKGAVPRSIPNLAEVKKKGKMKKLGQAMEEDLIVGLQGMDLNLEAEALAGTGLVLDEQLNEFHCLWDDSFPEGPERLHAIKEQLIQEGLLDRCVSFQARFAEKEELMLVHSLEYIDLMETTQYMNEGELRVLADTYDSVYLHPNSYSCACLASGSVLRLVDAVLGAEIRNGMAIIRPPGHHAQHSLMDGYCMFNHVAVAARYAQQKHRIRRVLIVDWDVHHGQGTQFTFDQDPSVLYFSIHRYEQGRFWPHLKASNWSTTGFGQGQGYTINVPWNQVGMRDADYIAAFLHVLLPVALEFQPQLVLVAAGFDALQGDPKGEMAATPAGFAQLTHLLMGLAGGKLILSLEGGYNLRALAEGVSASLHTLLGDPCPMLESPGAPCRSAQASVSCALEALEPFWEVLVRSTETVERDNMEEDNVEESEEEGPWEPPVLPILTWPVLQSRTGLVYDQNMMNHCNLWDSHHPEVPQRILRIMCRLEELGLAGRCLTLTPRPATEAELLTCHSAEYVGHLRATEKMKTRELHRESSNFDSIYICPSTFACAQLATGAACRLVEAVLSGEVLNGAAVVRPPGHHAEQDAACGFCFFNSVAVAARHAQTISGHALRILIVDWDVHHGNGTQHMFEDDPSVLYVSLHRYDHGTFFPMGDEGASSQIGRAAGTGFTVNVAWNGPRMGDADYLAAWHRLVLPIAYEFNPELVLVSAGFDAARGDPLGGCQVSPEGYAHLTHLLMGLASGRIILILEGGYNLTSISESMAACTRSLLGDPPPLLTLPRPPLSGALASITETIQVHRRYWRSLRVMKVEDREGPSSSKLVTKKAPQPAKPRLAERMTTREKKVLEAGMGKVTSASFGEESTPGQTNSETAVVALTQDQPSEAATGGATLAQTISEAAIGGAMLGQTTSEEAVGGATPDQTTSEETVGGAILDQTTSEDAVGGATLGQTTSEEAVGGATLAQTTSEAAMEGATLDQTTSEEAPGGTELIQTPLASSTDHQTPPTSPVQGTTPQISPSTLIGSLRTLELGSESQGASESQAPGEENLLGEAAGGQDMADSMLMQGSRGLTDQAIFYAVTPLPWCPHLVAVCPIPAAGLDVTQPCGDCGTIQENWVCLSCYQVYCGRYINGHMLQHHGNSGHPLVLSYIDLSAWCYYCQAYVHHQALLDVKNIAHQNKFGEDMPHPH

[2] = target: Histone deacetylase (Homo sapiens) (UniProt Q13547+O15379+Q9UBN7+Q92769+Q9UQL6+Q8WUI4+Q9BY41+Q96DB2+P56524+Q9UKV0+Q969S8); test: Inhibition of nuclear HDAC in human SKOV3 cells assessed as increase in acetylated histone H3 levels at 1 to 50 uM after 1 hr by immunoblot method; format: cell-based
[3] = target: T1, Protein deacetylase HDAC6 (Homo sapiens); test: Inhibition of HDAC6 in human SKOV3 cells assessed as increase in acetylated tubulin levels at 1 to 50 uM after 1 hr by immunoblot method; format: cell-based
[4] = test system: SK-OV-3; test: Antiproliferative activity against human SKOV3 cells at 1 to 50 uM measured every 2 hrs for 200 hrs by IncuCyte ZOOM cell confluence assay; format: functional, cell-based
[5] = test system: SK-OV-3; test: Antiproliferative activity against human SKOV3 cells at 10 uM measured every 2 hrs for 200 hrs by IncuCyte ZOOM cell confluence assay; format: functional, cell-based
[6] = target: T1, Protein deacetylase HDAC6 (Homo sapiens); test: Inhibition of HDAC6 in human SKOV3 cells assessed as increase in acetylated tubulin levels at 1 uM after 1 hr by immunoblot method; format: cell-based

inhibition [1]	SMILES	further results
88%	O=C(NO)c1ccccc1	
25%	O=C(c1ccc(Cn2c3c(c4cc(F)ccc42)C[S+]([O-])CC3)cc1)C(F)(F)F (stereo not given)	inhibition [2]: inactive; inhibition [3]: inactive; Activity [4]: inactive
17%	O=C(c1ccc(Cn2c3c(c4ccccc42)C[S+]([O-])CC3)cc1)C(F)(F)F (stereo not given)	
	O=C(CCCCCCC(=O)Nc1ccccc1)NO	Activity [5]: Active
100%	O=C(NO)c1ccc(Cn2c3c(c4cc(F)ccc42)C[S+]([O-])CC3)cc1 (stereo not given)	inhibition [6]: Active

SMILES	inhibition [1]	further results
O=C(c1ccccc1)C(F)(F)F	0%	
